Laboratory results from patent publication US20080039468A1, “Novel 3-Phenyltetrahydrocinnolin-5-Ol Derivative and Medicinal Use Thereof” (priority 2004, published 2008).
≈ marks a conversion by molar mass, not a printed value.

Each compound was assayed on Mastocarcinoma Cells MCF-7 (assay: In vitro antitumor effect on mastocarcinoma cells MCF-7 (Methylene Blue staining, proliferation inhibition)). Details: Homo sapiens, MCF7, 72 h; MCF-7 cells, 3 days culture with test compound, RPMI 1640 with 10% serum, Methylene Blue absorbance; read-out: IC50 value (50% cytostatic concentration).
Format: cell-based
Description: In Vitro Antitumor Effect on Mastocarcinoma Cells MCF-7
By the use of RPMI 1640 medium (Asahi Tekunogurasu Co., Ltd.) containing 10% serum, 2,000 MCF-7 cells were seeded into a 96-well plate. The cells were cultured for 24 hours under conditions of 37° C. and 5% CO2/95% air, and then a test compound was added thereto, followed by culturing for another 3 days. Cells were stained with a 0.05% Methylene Blue solution and absorbance at 660 nm was measured with a microtiter plate reader (Benchmark Plus, mfd. by BIO RAD Laboratories Inc.). The proliferation inhibition rate was calculated by the following equation and the 50% cytostatic concentration was determined from a dose-response curve. Proliferation inhibition rate=((absorbance for control group−absorbance for drug-treated group)/absorbance for control group))×100

Row | Structure (SMILES) | IC50 [mg/L]
1 | CC1Cc2nnc(-c3cccc(C(F)(F)F)c3)cc2C(OC(=O)CCCN(C)C)C1 (centres unmarked) [Compound No. 21, 5-(4-dimethylaminobutanoyl)oxy-7-methyl-3-(3-trifluoromethylphenyl)-5,6,7,8-tetrahydro-cinnoline] | 0.129 (≈ 0.306 µM)
2 | CCOCC(=O)OC1CC(C)Cc2nnc(-c3cccc(C(F)(F)F)c3)cc21 (centres unmarked) [Compound No. 13, 5-ethoxyacetyloxy-7-methyl-3-(3-trifluoromethylphenyl)-5,6,7,8-tetrahydrocinnoline] | 0.135 (≈ 0.342 µM)
3 | CC1Cc2nnc(-c3cccc(C(F)(F)F)c3)cc2C(OC(=O)COCC(=O)NCc2cccnc2)C1 (centres unmarked) [Compound No. 16, 5-[(pyridin-3-ylmethyl)aminocarbonylmethoxyacetyl]oxy-7-methyl-3-(3-trifluoromethyl-phenyl)-5,6,7,8-tetrahydrocinnoline] | 0.166 (≈ 0.323 µM)
4 | CC1Cc2nnc(-c3cccc(C(F)(F)F)c3)cc2C(OC(=O)CCC(=O)NCc2ccncc2)C1 (centres unmarked) [Compound No. 25, 5-[3-(pyridin-4-ylmethyl)aminocarbonylpropanoyl]oxy-7-methyl-3-(3-trifluoromethylphenyl)-5,6,7,8-tetrahydrocinnoline] | 0.144 (≈ 0.289 µM)
5 | COC(=O)CCC(=O)OC1CC(C)Cc2nnc(-c3cccc(C(F)(F)F)c3)cc21 (centres unmarked) [Compound No. 26, 5-(3-methoxycarbonylpropanoyl)oxy-7-methyl-3-(3-trifluoromethylphenyl)-5,6,7,8-tetrahydro-cinnoline] | 1.18 (≈ 2.79 µM)
6 | COCCOC(=O)OC1CC(C)Cc2nnc(-c3cccc(C(F)(F)F)c3)cc21 (centres unmarked) [Compound No. 38, 5-(2-methoxyethoxycarbonyl)oxy-7-methyl-3-(3-trifluoromethylphenyl)-5,6,7,8-tetrahydro-cinnoline] | 0.649 (≈ 1.58 µM)
7 | CCOC(=O)CCC(=O)OC1CC(C)Cc2nnc(-c3cccc(C(F)(F)F)c3)cc21 (centres unmarked) [Compound No. 27, 5-(3-ethoxycarbonylpropanoyl)oxy-7-methyl-3-(3-trifluoromethylphenyl)-5,6,7,8-tetrahydro-cinnoline] | 0.736 (≈ 1.69 µM)
8 | CC1Cc2nnc(-c3cccc(C(F)(F)F)c3)cc2C(OC(=O)CCCC(=O)O)C1 (centres unmarked) [Compound No. 19, 5-(4-carboxybutanoyl)oxy-7-methyl-3-(3-trifluoromethylphenyl)-5,6,7,8-tetrahydrocinnoline] | 0.908 (≈ 2.15 µM)
9 | CC1Cc2nnc(-c3cccc(C(F)(F)F)c3)cc2C(OC(=O)CCC(=O)O)C1 (centres unmarked) [Compound No. 18, 5-(3-carboxypropanoyl)oxy-7-methyl-3-(3-trifluoromethylphenyl)-5,6,7,8-tetrahydrocinnoline] | 0.981 (≈ 2.4 µM)
10 | CC1Cc2nnc(-c3cccc(C(F)(F)F)c3)cc2C(OC(=O)COCC(=O)NCCN2CCOCC2)C1 (centres unmarked) [Compound No. 15, 5-[(2-(morpholin-4-yl)ethyl)aminocarbonylmethoxyacetyl]oxy-7-methyl-3-(3-trifluoromethylphenyl)-5,6,7,8-tetrahydrocinnoline] | 0.171 (≈ 0.319 µM)
11 | CC1Cc2nnc(-c3cccc(C(F)(F)F)c3)cc2C(OC(=O)N2CCOCC2)C1.Cl (centres unmarked) [Compound No. 43, 7-methyl-5-(morpholin-4-yl-carbonyl)oxy-3-(3-trifluoromethylphenyl)-5,6,7,8-tetrahydrocinnoline hydrochloride] | 4.34
12 | CC1Cc2nnc(-c3cccc(C(F)(F)F)c3)cc2C(OC(=O)COCC(=O)O)C1 (centres unmarked) [Compound No. 14, 5-(carboxymethoxyacetyl)oxy-7-methyl-3-(3-trifluoromethylphenyl)-5,6,7,8-tetrahydrocinnoline] | 0.148 (≈ 0.349 µM)
13 | CC1Cc2nnc(-c3cccc(C(F)(F)F)c3)cc2C(OC(=O)CCC(=O)NCc2cccnc2)C1 (centres unmarked) [Compound No. 24, 5-[3-(pyridin-3-ylmethyl)aminocarbonylpropanoyl]oxy-7-methyl-3-(3-trifluoromethylphenyl)-5,6,7,8-tetrahydrocinnoline] | 0.098 (≈ 0.197 µM)
14 | CC1Cc2nnc(-c3cccc(C(F)(F)F)c3)cc2C(OC(=O)CCC(=O)NCCN2CCOCC2)C1 (centres unmarked) [Compound No. 23, 5-[3-[2-(morpholin-4-yl)ethyl]amino-carbonylpropanoyl]oxy-7-methyl-3-(3-trifluoromethylphenyl)-5,6,7,8-tetrahydrocinnoline] | 0.128 (≈ 0.246 µM)
15 | CC1Cc2nnc(-c3cccc(C(F)(F)F)c3)cc2C(OC(=O)COCC(=O)NCc2ccncc2)C1 (centres unmarked) [Compound No. 17, 5-[(pyridin-4-ylmethyl)aminocarbonylmethoxyacetyl]oxy-7-methyl-3-(3-trifluoromethyl-phenyl)-5,6,7,8-tetrahydrocinnoline] | 0.139 (≈ 0.27 µM)

Same assay, conditions: MCF-7 cells, 3 days culture with test compound, RPMI 1640 with 10% serum, Methylene Blue absorbance

Row | Structure (SMILES) | IC50 value (50% cytostatic concentration) [mg/L]
16 | CC1Cc2nnc(-c3cccc(C(F)(F)F)c3)cc2C(OC(=O)OCCN2CCOCC2)C1 (centres unmarked) [Compound No. 39, 5-(2-(morpholino-4-yl)ethoxycarbonyl)oxy-7-methyl-3-(3-trifluoromethylphenyl)-5,6,7,8-tetrahydrocinnoline] | 0.152 (≈ 0.327 µM)
17 | CC1Cc2nnc(-c3cccc(C(F)(F)F)c3)cc2C(OC(=O)CC(O)C(=O)O)C1 (centres unmarked) [Compound No. 20, 5-[(3-carboxy-3-hydroxy)propanoyl]oxy-7-methyl-3-(3-trifluoromethylphenyl)-5,6,7,8-tetrahydrocinnoline] | 1.339 (≈ 3.16 µM)
